Source: PubChem BioAssay AID330 (DTP/NCI, 2004)
Values joined by “and” are separate entries in the source; they are usually repeats but may differ in a detail not shown here. Equal values may be shown once. Toxic doses and inconclusive results are not listed. The calls were made as follows: active = survival T/C of 150% or more; inactive = T/C below 125% in these data. Square brackets hold non-standard residues; d marks the D form. Peptide text beside a SMILES is read from it. ξ: configuration not given here. ξF = NC(Cc1ccccc1)C(=O)O

Test system: P388 leukemia ip, CD2F1 mice, survival T/C
Experiment: NCI In Vivo Anticancer Drug Screen. Data for tumor model P388 Leukemia (intraperitoneal) in CD2F1 (CDF1) mice
Details: endpoint: median survival time, higher = longer survival
In short: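 Mice carrying the transplanted tumor received test compound or vehicle. Survival was recorded in each group, and the value is the treated-group measurement divided by that of the vehicle-treated control group.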

[1] = dose: 50.0 mg/kg/injection, schedule: Q01DX009 (ip), vehicle: saline with Tween-80
[2] = dose: 100.0 mg/kg/injection, schedule: Q01DX009 (ip), vehicle: saline with Tween-80
[3] = dose: 200.0 mg/kg/injection, schedule: Q01DX009 (ip), vehicle: saline with Tween-80
[4] = dose: 50.0 mg/kg/injection, schedule: Q01DX005 (ip), vehicle: Klucel (hydroxypropylcellulose) (HPC)
[5] = dose: 100.0 mg/kg/injection, schedule: Q01DX005 (ip), vehicle: Klucel (hydroxypropylcellulose) (HPC)
[6] = dose: 60.0 mg/kg/injection, schedule: Q01DX005 (ip), vehicle: saline with Tween-80
[7] = dose: 120.0 mg/kg/injection, schedule: Q01DX005 (ip), vehicle: saline with Tween-80
[8] = dose: 50.0 mg/kg/injection, schedule: Q01DX005 (ip), vehicle: saline with Tween-80
[9] = dose: 100.0 mg/kg/injection, schedule: Q01DX005 (ip), vehicle: saline with Tween-80
[10] = dose: 200.0 mg/kg/injection, schedule: Q01DX005 (ip), vehicle: saline with Tween-80
[11] = dose: 200.0 mg/kg/injection, schedule: Q01DX005 (ip), vehicle: Klucel (hydroxypropylcellulose) (HPC)

Measured: T/C

O=C1CCSC(=S)N1c1ccc2c(c1)OCO2
inactive: dose: 50.0 mg/kg/injection, schedule: Q01DX009 (ip), vehicle: suspension in saline 105 % of control | dose: 100.0 mg/kg/injection, schedule: Q01DX009 (ip), vehicle: suspension in saline 90 % of control | dose: 200.0 mg/kg/injection, schedule: Q01DX009 (ip), vehicle: suspension in saline 98 % of control

CNC(=O)Cc1ccc2cc(OC)c(OC)cc2c1
inactive: [1] 90 % of control | [2] 95 % of control | [3] 90 % of control

C/C(=C\CC1C(=O)N(c2ccccc2)N(c2ccccc2)C1=O)CO
inactive: dose: 60.0 mg/kg/injection, schedule: Q01DX005 (ip), vehicle: Klucel (hydroxypropylcellulose) (HPC) 100 % of control | dose: 120.0 mg/kg/injection, schedule: Q01DX005 (ip), vehicle: Klucel (hydroxypropylcellulose) (HPC) 100 % of control | dose: 240.0 mg/kg/injection, schedule: Q01DX005 (ip), vehicle: Klucel (hydroxypropylcellulose) (HPC) 91 % of control

O=[N+]([O-])c1c(Br)sc(Br)c1[N+](=O)[O-]
inactive: dose: 12.5 mg/kg/injection, schedule: Q01DX009 (ip), vehicle: saline with Tween-80 104 % of control | dose: 25.0 mg/kg/injection, schedule: Q01DX009 (ip), vehicle: saline with Tween-80 95 % of control | [1] 95 % of control

O=C(O)C(CCCCNC(=S)S)NC(=S)S.[Zn+2] (configuration not stated)
inactive: [4] 95 % of control | [5] 95 % of control

O=C(CCS(=O)(=O)CCC(=O)c1ccccc1)c1ccccc1
inactive: dose: 100.0 mg/kg/injection, schedule: Q04DX003 (ip), vehicle: saline 90 % of control | dose: 200.0 mg/kg/injection, schedule: Q04DX003 (ip), vehicle: saline 89 % of control | dose: 400.0 mg/kg/injection, schedule: Q04DX003 (ip), vehicle: saline 88 % of control

O=C1c2ccccc2C(=O)c2c(O)c(NCCCNCCO)cc(O)c21
inactive: dose: 2.5 mg/kg/injection, schedule: Q01DX009 (ip), vehicle: acid diluted with saline 103 % of control | dose: 5.0 mg/kg/injection, schedule: Q01DX009 (ip), vehicle: acid diluted with saline 108 % of control | dose: 10.0 mg/kg/injection, schedule: Q01DX009 (ip), vehicle: acid diluted with saline 103 % of control | dose: 20.0 mg/kg/injection, schedule: Q01DX009 (ip), vehicle: acid diluted with saline 112 % of control | dose: 40.0 mg/kg/injection, schedule: Q01DX009 (ip), vehicle: acid diluted with saline 111 % of control | dose: 80.0 mg/kg/injection, schedule: Q01DX009 (ip), vehicle: acid diluted with saline 100 % of control

O=C(NCc1ccccc1)c1ccc(Cl)c(Cl)c1
inactive: dose: 25.0 mg/kg/injection, schedule: Q04DX003 (ip), vehicle: saline with Tween-80 101 % of control | dose: 50.0 mg/kg/injection, schedule: Q04DX003 (ip), vehicle: saline with Tween-80 104 % of control | dose: 100.0 mg/kg/injection, schedule: Q04DX003 (ip), vehicle: saline with Tween-80 90 % of control | dose: 200.0 mg/kg/injection, schedule: Q04DX003 (ip), vehicle: saline with Tween-80 95 % of control

CN1C(C(=O)Nc2nccs2)=C(O)c2ccccc2S1(=O)=O
inactive: [6] 105 % of control | [7] 98 % of control

CCOC(=O)Cn1c(=O)cc(-c2ccccc2)oc1=O
inactive: [1] 106 % of control | [2] 107 % of control | [3] 90 % of control

CC1(C)OC(C(F)(F)F)(C(F)(F)F)c2cc(C(C)(C)C)ccc2S1
inactive: [6] 98 % of control | [7] 98 % of control | dose: 240.0 mg/kg/injection, schedule: Q01DX005 (ip), vehicle: saline with Tween-80 102 % of control

NC(=S)N/N=C/c1c(-c2ccccc2)nc2n1CCS2
inactive: dose: 100.0 mg/kg/injection, schedule: Q01DX001 (ip), vehicle: Klucel (hydroxypropylcellulose) (HPC) 100 % of control | dose: 200.0 mg/kg/injection, schedule: Q01DX001 (ip), vehicle: Klucel (hydroxypropylcellulose) (HPC) 104 % of control | dose: 400.0 mg/kg/injection, schedule: Q01DX001 (ip), vehicle: Klucel (hydroxypropylcellulose) (HPC) 109 % of control

CC(C)NC(=O)OCc1c(COC(=O)NC(C)C)c(-c2ccc(Cl)c(Cl)c2)n2c1CC(OC(=O)CN(C)C)C2 (configuration not stated)
inactive: dose: 2.5 mg/kg/injection, schedule: Q01DX009 (ip), vehicle: water 101 % of control | dose: 5.0 mg/kg/injection, schedule: Q01DX009 (ip), vehicle: distilled water + Tween-80 111 % of control | dose: 5.0 mg/kg/injection, schedule: Q01DX009 (ip), vehicle: water 117 % of control | dose: 10.0 mg/kg/injection, schedule: Q01DX009 (ip), vehicle: distilled water + Tween-80 122 % of control | dose: 80.0 mg/kg/injection, schedule: Q01DX009 (ip), vehicle: water 110 % of control

COC1/C=C/OC2(C)Oc3c(C)c(O)c4c(O)c(c(/C=N/N5C(C)CN(Cc6ccc(C)cc6)CC5C)c(O)c4c3C2=O)NC(=O)C(C)=C/C=C/C(C)C(O)C(C)C(O)C(C)C(OC(C)=O)C1C (configuration not stated)
inactive: [1] 97 % of control | [2] 96 % of control | [3] 103 % of control

CC(=O)C1=C([Si](C)(C)C)N=NC1(C)C
inactive: [8] 111 % of control | [9] 109 % of control | [10] 102 % of control

C(=C\c1ccncc1)/c1ccccc1
inactive: [4] 92 % of control | [5] 90 % of control

N#CCN=C(N)NN
inactive: dose: 100.0 mg/kg/injection, schedule: Q04DX003 (ip), vehicle: Klucel (hydroxypropylcellulose) (HPC) 105 % of control | dose: 200.0 mg/kg/injection, schedule: Q04DX003 (ip), vehicle: Klucel (hydroxypropylcellulose) (HPC) 94 % of control | dose: 400.0 mg/kg/injection, schedule: Q04DX003 (ip), vehicle: Klucel (hydroxypropylcellulose) (HPC) 108 % of control

COc1cc(NCCCCCCNCC(C)C)c2nccc(C)c2c1
inactive: dose: 6.25 mg/kg/injection, schedule: Q01DX009 (ip), vehicle: saline 95 % of control | dose: 12.5 mg/kg/injection, schedule: Q01DX009 (ip), vehicle: saline 95 % of control | dose: 25.0 mg/kg/injection, schedule: Q01DX009 (ip), vehicle: saline 96 % of control

O=C1NC(=O)C2(OC3c4ccccc4C=CN3C3=C2C(=O)CC3)C(=O)N1 (configuration not stated)
inactive: [8] 97 % of control | [9] 91 % of control | [10] 91 % of control

CCOC(=O)c1no[n+]([O-])c1C(=O)OCC
inactive: dose: 6.25 mg/kg/injection, schedule: Q01DX009 (ip), vehicle: Klucel (hydroxypropylcellulose) (HPC) 103 % of control | dose: 12.5 mg/kg/injection, schedule: Q01DX009 (ip), vehicle: Klucel (hydroxypropylcellulose) (HPC) 105 % of control | dose: 25.0 mg/kg/injection, schedule: Q01DX009 (ip), vehicle: Klucel (hydroxypropylcellulose) (HPC) 101 % of control | dose: 50.0 mg/kg/injection, schedule: Q01DX009 (ip), vehicle: Klucel (hydroxypropylcellulose) (HPC) 86 % of control

O=C(O)CCc1ccccc1Br
inactive: dose: 100.0 mg/kg/injection, schedule: Q04DX002 (ip), vehicle: saline with Tween-80 101 % of control | dose: 200.0 mg/kg/injection, schedule: Q04DX002 (ip), vehicle: saline with Tween-80 95 % of control | dose: 400.0 mg/kg/injection, schedule: Q04DX002 (ip), vehicle: saline with Tween-80 100 % of control

Clc1ccc(CSc2cnnc3ccccc23)c(Cl)c1
inactive: dose: 75.0 mg/kg/injection, schedule: Q01DX009 (ip), vehicle: suspension in saline 96 % of control | dose: 150.0 mg/kg/injection, schedule: Q01DX009 (ip), vehicle: suspension in saline 89 % of control | dose: 300.0 mg/kg/injection, schedule: Q01DX009 (ip), vehicle: suspension in saline 89 % of control

Cc1ccc(C(C(C)[N+](=O)[O-])C(C(=O)c2ccccc2)S(=O)(=O)c2ccccc2)cc1 (configuration not stated)
inactive: [4] 93 % of control | [5] 106 % of control and 91 % of control | [11] 106 % of control and 89 % of control

C[n+]1c(-c2ccc(/C=N/NC(=O)c3cc(O)c(C(=O)N/N=C/c4ccc(-c5cn6ccccc6[n+]5C)cc4)cc3O)cc2)cn2ccccc21
inactive: [6] 105 % of control | [7] 105 % of control

CCN(CC)C(=O)C(F)C(F)(F)C(F)(F)COCc1ccccc1 (configuration not stated)
inactive: [1] 99 % of control | [2] 100 % of control | [3] 100 % of control

CCOC(=O)CNC(=O)C(CSSCC(NC(=O)OCc1ccccc1)C(=O)OC)NC(=O)C(NC(=O)OCc1ccccc1)C(C)C (configuration not stated)
inactive: [4] 100 % of control | [5] 98 % of control | [11] 95 % of control

NCC(=O)NC(Cc1ccccc1)C(=O)NCC(=O)O (configuration not stated) (H-Gly-[ξF]-Gly-OH)
inactive: [4] 100 % of control | [5] 104 % of control | [11] 100 % of control

CN(C)c1nc(O)cc(=O)[nH]1
inactive: [1] 106 % of control | [2] 100 % of control | [3] 89 % of control
